Measurements: ChEMBL document CHEMBL5465560, “Selectivity Literature for EUbOPEN Chemogenomic Library” (2024)

Key:
[1] = target: Ribosomal protein S6 kinase alpha-4 (Homo sapiens) (UniProt O75676); assay: Selectivity interaction (KinomeScan (DiscoverX)) EUB0000595a RPS6KA4; conditions: at 10 µM
[2] = target: T1, Ephrin type-B receptor 3 (Homo sapiens) (UniProt P54753); assay: Selectivity interaction (KinomeScan (DiscoverX)) EUB0000045b EPHB3
T1 sequence (whole entry): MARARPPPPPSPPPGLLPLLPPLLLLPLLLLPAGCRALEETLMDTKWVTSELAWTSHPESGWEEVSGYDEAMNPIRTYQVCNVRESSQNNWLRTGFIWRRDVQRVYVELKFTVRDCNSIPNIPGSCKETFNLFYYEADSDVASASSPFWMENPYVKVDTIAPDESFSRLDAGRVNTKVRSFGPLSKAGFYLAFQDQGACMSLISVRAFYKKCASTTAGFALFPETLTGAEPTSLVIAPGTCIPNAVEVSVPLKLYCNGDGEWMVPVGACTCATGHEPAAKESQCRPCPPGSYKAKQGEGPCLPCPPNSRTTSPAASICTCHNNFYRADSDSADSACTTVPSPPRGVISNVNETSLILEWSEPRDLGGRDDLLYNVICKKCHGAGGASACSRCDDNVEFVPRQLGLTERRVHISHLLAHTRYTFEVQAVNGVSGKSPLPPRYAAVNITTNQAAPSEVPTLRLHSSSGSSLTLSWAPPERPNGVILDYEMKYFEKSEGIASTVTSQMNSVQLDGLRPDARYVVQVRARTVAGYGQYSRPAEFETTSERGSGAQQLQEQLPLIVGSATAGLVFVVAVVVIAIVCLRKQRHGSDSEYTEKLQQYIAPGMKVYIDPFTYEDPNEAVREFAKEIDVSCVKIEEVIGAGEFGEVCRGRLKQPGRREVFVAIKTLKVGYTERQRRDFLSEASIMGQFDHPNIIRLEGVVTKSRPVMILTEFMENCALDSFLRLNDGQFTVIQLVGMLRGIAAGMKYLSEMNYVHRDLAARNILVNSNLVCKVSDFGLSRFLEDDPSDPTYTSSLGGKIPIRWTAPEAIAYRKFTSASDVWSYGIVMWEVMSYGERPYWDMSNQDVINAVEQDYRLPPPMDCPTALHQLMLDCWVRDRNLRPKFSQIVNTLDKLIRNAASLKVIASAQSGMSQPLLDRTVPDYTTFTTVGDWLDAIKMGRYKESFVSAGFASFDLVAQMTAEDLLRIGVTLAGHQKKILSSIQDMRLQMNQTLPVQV

[3] = target: T2, 5-hydroxytryptamine receptor 1A (Homo sapiens) (UniProt P08908); assay: Selectivity interaction (Eurofins CEREP Diversity Profile (receptors and ion channels)) EUB0000279b HTR1A; conditions: at 10 µM
T2 sequence (whole entry): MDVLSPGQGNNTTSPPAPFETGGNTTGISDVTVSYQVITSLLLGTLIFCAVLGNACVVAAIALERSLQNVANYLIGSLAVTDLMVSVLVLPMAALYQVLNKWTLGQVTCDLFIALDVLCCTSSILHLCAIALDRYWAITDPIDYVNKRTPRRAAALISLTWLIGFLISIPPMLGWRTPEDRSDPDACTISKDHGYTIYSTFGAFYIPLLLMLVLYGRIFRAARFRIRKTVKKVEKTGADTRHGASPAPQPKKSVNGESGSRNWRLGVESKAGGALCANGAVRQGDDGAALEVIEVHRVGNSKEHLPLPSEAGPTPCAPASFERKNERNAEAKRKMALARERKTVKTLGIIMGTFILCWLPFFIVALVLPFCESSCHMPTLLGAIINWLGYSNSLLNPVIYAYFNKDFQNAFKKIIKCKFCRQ

[4] = target: T3, Tyrosine-protein kinase TXK (Homo sapiens) (UniProt P42681); assay: Selectivity interaction (KinomeScan (DiscoverX)) EUB0001049a TXK; conditions: at 1 µM
T3 sequence (whole entry): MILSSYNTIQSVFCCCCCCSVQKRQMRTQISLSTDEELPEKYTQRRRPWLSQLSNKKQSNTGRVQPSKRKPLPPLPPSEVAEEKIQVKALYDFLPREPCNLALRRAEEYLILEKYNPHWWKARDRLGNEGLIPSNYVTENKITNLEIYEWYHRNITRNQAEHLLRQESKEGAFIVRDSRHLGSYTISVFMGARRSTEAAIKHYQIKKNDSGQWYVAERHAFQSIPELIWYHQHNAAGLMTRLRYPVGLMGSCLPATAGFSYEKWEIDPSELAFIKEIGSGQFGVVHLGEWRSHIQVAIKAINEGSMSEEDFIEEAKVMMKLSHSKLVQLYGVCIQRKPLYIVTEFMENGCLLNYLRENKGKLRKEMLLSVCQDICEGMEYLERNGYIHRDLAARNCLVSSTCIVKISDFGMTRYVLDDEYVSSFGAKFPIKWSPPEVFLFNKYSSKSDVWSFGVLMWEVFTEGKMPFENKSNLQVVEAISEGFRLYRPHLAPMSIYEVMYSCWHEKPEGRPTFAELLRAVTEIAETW

[5] = target: T4, Serine/threonine-protein kinase Nek2 (Homo sapiens) (UniProt P51955); assay: Selectivity interaction (Upstate Kinase Profiler service (Millipore)) EUB0000056c NEK2; conditions: at 1 µM
T4 sequence (whole entry): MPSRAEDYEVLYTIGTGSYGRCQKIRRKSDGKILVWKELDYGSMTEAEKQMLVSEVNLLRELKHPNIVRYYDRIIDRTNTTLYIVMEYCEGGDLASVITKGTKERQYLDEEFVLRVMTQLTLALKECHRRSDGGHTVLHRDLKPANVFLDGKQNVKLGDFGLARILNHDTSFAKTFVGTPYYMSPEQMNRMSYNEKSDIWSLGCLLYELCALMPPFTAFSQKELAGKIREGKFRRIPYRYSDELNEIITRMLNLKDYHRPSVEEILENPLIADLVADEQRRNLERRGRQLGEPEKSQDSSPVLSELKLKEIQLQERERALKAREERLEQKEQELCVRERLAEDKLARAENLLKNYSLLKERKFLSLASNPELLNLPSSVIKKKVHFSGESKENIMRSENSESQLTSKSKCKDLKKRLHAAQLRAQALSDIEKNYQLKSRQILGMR

[6] = target: Serine/threonine-protein kinase WNK4 (Homo sapiens) (UniProt Q96J92); assay: Selectivity interaction (ActivX KiNativ screen (ex vivo kinase selectivity in human PBMCs)) EUB0001619a WNK4; format: cell-based; conditions: PBMC, at 1 µM
Serine/threonine-protein kinase WNK4 (Homo sapiens), sequence (Q96J92 whole entry): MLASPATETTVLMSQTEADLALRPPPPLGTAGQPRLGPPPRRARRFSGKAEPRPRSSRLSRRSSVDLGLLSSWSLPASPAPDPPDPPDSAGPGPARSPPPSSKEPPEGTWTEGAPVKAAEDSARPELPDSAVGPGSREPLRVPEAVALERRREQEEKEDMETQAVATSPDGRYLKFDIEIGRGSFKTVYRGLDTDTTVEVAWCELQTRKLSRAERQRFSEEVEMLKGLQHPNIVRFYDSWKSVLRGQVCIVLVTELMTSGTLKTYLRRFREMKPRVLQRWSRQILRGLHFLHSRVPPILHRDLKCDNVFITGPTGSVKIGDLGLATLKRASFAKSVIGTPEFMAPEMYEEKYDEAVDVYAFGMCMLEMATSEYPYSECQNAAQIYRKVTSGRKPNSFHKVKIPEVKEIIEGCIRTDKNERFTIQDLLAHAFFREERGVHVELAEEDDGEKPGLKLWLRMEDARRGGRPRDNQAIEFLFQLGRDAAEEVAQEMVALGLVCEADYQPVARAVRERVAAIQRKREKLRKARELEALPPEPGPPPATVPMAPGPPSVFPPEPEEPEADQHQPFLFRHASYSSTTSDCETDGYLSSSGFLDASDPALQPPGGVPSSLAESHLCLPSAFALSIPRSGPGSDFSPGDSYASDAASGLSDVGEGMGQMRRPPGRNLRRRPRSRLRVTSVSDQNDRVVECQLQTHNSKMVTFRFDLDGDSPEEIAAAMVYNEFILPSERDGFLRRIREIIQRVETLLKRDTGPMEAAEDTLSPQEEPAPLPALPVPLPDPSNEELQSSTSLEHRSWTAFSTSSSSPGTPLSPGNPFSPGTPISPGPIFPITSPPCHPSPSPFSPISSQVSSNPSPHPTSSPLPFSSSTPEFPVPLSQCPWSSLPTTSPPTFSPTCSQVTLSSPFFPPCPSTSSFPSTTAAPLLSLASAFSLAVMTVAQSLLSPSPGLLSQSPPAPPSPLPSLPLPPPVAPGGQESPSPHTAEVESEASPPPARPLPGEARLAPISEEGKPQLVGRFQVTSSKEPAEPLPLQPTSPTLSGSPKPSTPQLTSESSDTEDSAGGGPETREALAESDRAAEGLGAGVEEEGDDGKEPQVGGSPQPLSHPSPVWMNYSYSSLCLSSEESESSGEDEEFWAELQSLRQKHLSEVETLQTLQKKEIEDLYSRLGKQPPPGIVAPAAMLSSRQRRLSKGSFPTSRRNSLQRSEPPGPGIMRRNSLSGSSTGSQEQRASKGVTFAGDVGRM

[7] = target: Serine/threonine-protein kinase MARK2 (Homo sapiens) (UniProt Q7KZI7); assay: Selectivity interaction (ActivX KiNativ screen (kinase selectivity in THP-1 cell lysates)) EUB0000639a MARK2; format: subcellular; conditions: lysate
Serine/threonine-protein kinase MARK2 (Homo sapiens), sequence (Q7KZI7 whole entry): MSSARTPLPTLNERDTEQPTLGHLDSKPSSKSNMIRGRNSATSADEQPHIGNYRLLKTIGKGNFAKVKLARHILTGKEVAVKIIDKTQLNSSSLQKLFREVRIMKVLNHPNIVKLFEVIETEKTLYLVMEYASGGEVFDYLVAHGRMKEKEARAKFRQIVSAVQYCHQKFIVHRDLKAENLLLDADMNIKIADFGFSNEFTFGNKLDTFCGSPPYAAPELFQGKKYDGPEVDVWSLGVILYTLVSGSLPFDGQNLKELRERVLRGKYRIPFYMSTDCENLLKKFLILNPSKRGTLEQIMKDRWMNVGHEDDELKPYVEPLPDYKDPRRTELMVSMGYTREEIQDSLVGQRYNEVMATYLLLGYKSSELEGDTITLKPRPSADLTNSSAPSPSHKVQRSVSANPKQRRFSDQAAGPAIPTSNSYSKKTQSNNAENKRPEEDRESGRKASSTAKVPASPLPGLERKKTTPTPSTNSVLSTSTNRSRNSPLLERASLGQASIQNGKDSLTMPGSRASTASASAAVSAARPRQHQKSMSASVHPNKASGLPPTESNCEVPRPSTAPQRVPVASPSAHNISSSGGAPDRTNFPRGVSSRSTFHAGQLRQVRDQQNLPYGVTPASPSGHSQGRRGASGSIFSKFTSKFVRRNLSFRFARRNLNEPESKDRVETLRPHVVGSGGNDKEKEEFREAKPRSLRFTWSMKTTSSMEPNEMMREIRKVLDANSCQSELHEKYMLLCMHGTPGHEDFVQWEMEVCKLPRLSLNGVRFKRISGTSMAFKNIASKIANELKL

Ribosomal protein S6 kinase alpha-4 (Homo sapiens), sequence (O75676 whole entry, looked up): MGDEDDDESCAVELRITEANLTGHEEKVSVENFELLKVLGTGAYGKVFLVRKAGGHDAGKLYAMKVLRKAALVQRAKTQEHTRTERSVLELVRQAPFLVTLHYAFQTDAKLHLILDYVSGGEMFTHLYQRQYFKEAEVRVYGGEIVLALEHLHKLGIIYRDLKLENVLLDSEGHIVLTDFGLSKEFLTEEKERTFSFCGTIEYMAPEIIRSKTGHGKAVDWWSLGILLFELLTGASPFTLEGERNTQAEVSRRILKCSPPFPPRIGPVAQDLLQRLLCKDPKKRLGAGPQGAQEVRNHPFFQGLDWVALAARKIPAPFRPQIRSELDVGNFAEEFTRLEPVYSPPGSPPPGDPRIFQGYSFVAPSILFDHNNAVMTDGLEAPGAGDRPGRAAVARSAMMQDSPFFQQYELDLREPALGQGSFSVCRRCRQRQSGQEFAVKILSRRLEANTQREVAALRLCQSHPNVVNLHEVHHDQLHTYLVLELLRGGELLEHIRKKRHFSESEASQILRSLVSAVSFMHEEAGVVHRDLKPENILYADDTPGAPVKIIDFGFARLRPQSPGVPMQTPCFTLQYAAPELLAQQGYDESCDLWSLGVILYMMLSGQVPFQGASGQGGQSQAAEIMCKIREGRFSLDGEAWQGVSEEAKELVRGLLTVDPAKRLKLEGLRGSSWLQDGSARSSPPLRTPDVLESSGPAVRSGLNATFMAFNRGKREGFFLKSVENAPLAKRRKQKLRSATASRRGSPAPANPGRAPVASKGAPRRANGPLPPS

**Q.** Which % of control [1] does the source give for `COCC(=O)NC/C=C/c1ccc2ncnc(Nc3ccc(Oc4ccc(C)nc4)c(C)c3)c2c1` [CP-724714] here?
**A.** Its % of control is 97%.

**Q.** What does the source list for `C=CC(=O)Nc1cc(-n2c(=O)ccc3cnc4ccc(-c5ccc(NS(C)(=O)=O)cc5)cc4c32)ccc1C`?
**A.** % of control ([2]; at 1 µM): 83%; % of control ([2]; at 10 µM): 88%

**Q.** With `CC(=O)c1cc(-c2ccccc2OCC2CC2)c2ncccn12` as the compound, how does the % of control [3] read?
**A.** Its % of control is 83%.

**Q.** With `COc1cc(Nc2nc(C)cc(-c3cnn4nc(OC)ccc34)n2)cc(C(F)(F)F)c1` as the compound, how does the % of control [4] read?
**A.** Its % of control is 91%.

**Q.** Which % of inhibition [5] does the source give for `Cc1ccc(-c2ccc3c(ccc4sc5c(c43)NC[C@@H](C)NC5=O)n2)cn1` here?
**A.** Its % of inhibition is -7%.

**Q.** For `N#Cc1cccc(-c2c[nH]c3ncnc(N4CCOCC4)c23)c1`, which % of inhibition [6] is on record?
**A.** The % of inhibition was -1%.

**Q.** How did the % of inhibition ([7]; at 0.01 µM) turn out when `CC[C@@H]1[C@H](F)C(=O)N[C@@H]1COc1nccc2cc(C(N)=O)c(OC)cc12` [ZIMLOVISERTIB] was run?
**A.** The % of inhibition was -8%.

**Q.** And the % of inhibition ([7]; at 0.04 µM)?
**A.** Its % of inhibition is 6.9%.

**Q.** What about the % of inhibition ([7]; at 0.2 µM) of the same compound?
**A.** The % of inhibition was 9.9%.

**Q.** What about the % of inhibition ([7]; at 1 µM) of the same compound?
**A.** The % of inhibition was 30%.

**Q.** And the % of inhibition ([7]; at 5 µM)?
**A.** Its % of inhibition is 56.3%.
